Source: patent publication US20240189315A1, “Cyclic Pyridine Derivatives as cGAS Inhibitors” (Boehringer Ingelheim International GmbH, priority 2022, published 2024)

Experiments:
Human cGAS enzyme = Human cGAS enzyme (Homo sapiens (Human), UniProt Q8N884); experiment: Human cGAS enzyme assay (hcGAS IC50, in vitro), cGAMP formation by RapidFire MS; format: biochemical; settings: Table 1;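 further: recombinant human cGAS activated by 45 bp dsDNA with 30 µM each ATP and GTP, 90 min, cGAMP vs cyclic-di-GMP standard by MS, 8-point titration from 10 µM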
[1] = target: cellular cGAS activity in baculovirus-stimulated THP1-Dual cells (Homo sapiens (Human), UniProt Q8N884); experiment: Human cGAS cell assay (THP1(vir) IC50): IFN induction in virus-stimulated THP1-Dual cells, IRF Lucia luciferase reporter; format: cell-based; settings: Table 1; virus-stimulated THP1 cells; read-out: THP(vir) IC50;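 further: Eight-point dilution series starting at 10 µM, 1% DMSO, 18 h at 37 °C, luminescence read-out, virus-free wells as 0% and DMSO-treated virus-stimulated wells as 100%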
[2] = system: pathway directly downstream of cGAS in cGAMP-stimulated THP1-Dual cells; experiment: cGAMP stimulated counter cell assay (THP1(cGAMP) IC50): IFN induction in cGAMP-stimulated THP1-Dual cells; format: cell-based, human; settings: Table 1; for IC50: Homo sapiens, THP1-Dual, cGAMP-stimulated THP1 cells, read-out: THP(cGAMP) IC50; for Ratio THP(cGAMP) IC50/ THP(vir) IC50: selectivity for cGAS inhibition
Description: 6.2 Method: Human cGAS Cell Assay and cGAMP Stimulated Counter Cell Assay (THP1(vir) IC50 and THP1(cGAMP) IC50)
THP1-Dual™ cells (InvivoGen #thpd-nfis) expressing IRF dependent Lucia luciferase reporter were used as basis for both assays. For the detection of cellular cGAS activity cells were stimulated by a baculovirus (pFastbac-1, Invitrogen, no coding insert) infection that delivers the cGAS enzyme stimulating double-stranded DNA (measurement of THP1(vir) IC50).
For the counter assay, cells were stimulated by cGAMP (SigmaAldrich #SML1232) to activate the identical pathway independent and directly downstream of cGAS (measurement of THP1(cGAMP) IC50). Pathway activity was monitored by measuring the Lucia luciferase activity induced by either DNA stimulated cGAS enzyme activity (measurement of THP1(vir) IC50) or by cGAMP directly (measurement of THP1(cGAMP) IC50, counter assay).
Compounds were delivered in 10 mM DMSO solution, serially diluted and transferred to the 384 well assay plate (Greiner #781201) using an Echo acoustic dispenser. Typically, 8 concentrations were used with the highest concentration at 10 μM in the final assay volume followed by ˜1:5 dilution steps. DMSO concentration was set to 1% in the final assay volume. The 384 well assay plate contained 21 test compounds (column 1-22), and DMSO in column 23 and 24.
Cells, cultivated according to manufacturer conditions, were harvested by centrifugation at 300 g/10 min and were then resuspended and diluted to 1.66E5 cells/ml in fresh cell culture medium (RPMI 1640 (Gibco #A10491-01), 10% FCS (Gibco #10500), 1× GlutaMax (Gibco #35050-061), 1× Pen/Strep solution (Gibco #15140-122), 100 μg/ml Normocin (InvivoGen #ant-nr), 100 μg/ml Zeocin (InvivoGen #ant-zn), 10 μg/ml Blasticidin S (Life Technologies #A11139-03)). The baculovirus solution was then added 1:200 (have varied according to virus batch) to the cells (measurement of THP1(vir) IC50). […] 30 μL of the cell/virus-mix were added to each well of the compound plate from column 1-23 via MultiDrop Combi dispenser (5000 cells/well). In column 24, 30 μl/5000 cells/well without virus were added as a low control.
The plates were then incubated for 18 h at 37° C. in a humidified incubator.
Following that, 15 μL of QuantiLuc detection reagent (InvivoGen #rep-qlcg5) were added to each well using a MultiDrop Combi. Measurement was done immediately after the addition using an EnVision reader (US-luminescence read-mode).
Data Evaluation and Calculation:
For data evaluation and calculation, the measurement of the low control was set as 0% control and the measurement of the high control was set as 100% control. The IC50 values were calculated using the standard 4 parameter logistic regression formula. Calculation: [y=(a−d)/(1+(x/c)^b)+d], a=low value, d=high value; x=conc M; c=IC50 M; b=slope

[3] = target: cellular cGAS activity in dsDNA-stimulated human whole blood (Homo sapiens (Human), UniProt Q8N884); experiment: Human whole blood assay (hWB IC50): IFNα2a production after dsDNA transfection; format: cell-based; settings: Table 1; dsDNA-stimulated human whole blood;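 further: IFNα-2a in plasma measured by MSD electrochemiluminescence immunoassay after 22 h at 37 °C, 8-point dilution series from 10 µM top concentration, DMSO wells as controls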
Sequence of cellular cGAS activity in dsDNA-stimulated human whole blood (Q8N884 whole entry): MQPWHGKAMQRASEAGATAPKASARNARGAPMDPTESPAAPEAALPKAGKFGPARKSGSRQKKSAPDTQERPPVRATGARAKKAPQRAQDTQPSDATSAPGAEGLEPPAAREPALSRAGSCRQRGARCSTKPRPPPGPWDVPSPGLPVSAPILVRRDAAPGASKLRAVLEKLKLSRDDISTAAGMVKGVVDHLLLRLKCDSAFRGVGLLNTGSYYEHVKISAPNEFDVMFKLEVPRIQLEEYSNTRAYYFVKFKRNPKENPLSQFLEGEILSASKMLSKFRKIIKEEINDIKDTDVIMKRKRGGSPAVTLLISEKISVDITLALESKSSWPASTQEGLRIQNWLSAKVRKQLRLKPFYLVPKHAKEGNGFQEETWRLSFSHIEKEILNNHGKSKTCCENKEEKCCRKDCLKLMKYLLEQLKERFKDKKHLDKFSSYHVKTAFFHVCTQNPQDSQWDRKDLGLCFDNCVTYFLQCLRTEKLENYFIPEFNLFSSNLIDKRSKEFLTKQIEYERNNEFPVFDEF

Sequence of Human cGAS enzyme (Q8N884 whole entry): as above
Sequence of cellular cGAS activity in baculovirus-stimulated THP1-Dual cells (Q8N884 whole entry): as above

| SMILES | IC50 (Human cGAS enzyme) | IC50 [1] | IC50 [3] | IC50 [2] | Ratio THP(cGAMP) IC50/ THP(vir) IC50 [2] |
| --- | --- | --- | --- | --- | --- |
| C[C@H]1CCCOCc2nc(c3oc4ccccc4c3n2)N2C[C@H](C[C@H]2C(=O)O)Oc2ncc(Cl)cc2[C@@]2(F)CCN(C[C@@H]2C)C1=O (single isomer, unassigned) [Example 09] | 45 nM | 240 nM | 161 nM | 3500 nM | 15 |
| C[C@H]1CN2CC[C@]1(F)c1cc(Cl)cnc1O[C@H]1C[C@@H](C(=O)O)N(C1)c1nc(nc3c1oc1ccccc13)CC(=O)NCCCC2=O [Example 01, (1R,9S,11S,34S)-4-Chloro-1-fluoro-34-methyl-26,31-dioxo-8,15-dioxa-6,12,23,27,32,37-hexaaza-heptacyclo[30.2.2.1^9,12.1^13,24.0^2,7.0^14,22.0^16,21]octatriaconta-2,4,6,13(37),14(22),16(21),17,19,23-nonaene-11-carboxylic acid] | 25 nM | 150 nM | 208 nM | 2900 nM | 19 |
| C[C@@H]1COCCCc2nc(c3oc4ccccc4c3n2)N2C[C@H](C[C@H]2C(=O)O)Oc2ncc(Br)cc2[C@@]2(F)CCN(C[C@@H]2C)C1=O [Example 26] | 18 nM | 46 nM | 276 nM | 3200 nM | 70 |
| C[C@H]1CN2CC[C@]1(F)c1cc(Cl)cnc1O[C@H]1C[C@@H](C(=O)O)N(C1)c1nc(nc3c1oc1ccccc13)CCCCCOC2=O [Example 22, (1R,9S,11S,34S)-4-chloro-1-fluoro-34-methyl-31-oxo-8,15,30-trioxa-6,12,23,32,37-pentaaabestacyclo[30.2.2.1^9,12.1^13,24.0^2,7.0^14,22.0^16,21]octatriaconta-2,4,6,13(37),14(22),16(21),17,19,23-nonaene-11-carboxylic acid] | 45 nM | 490 nM | 1560 nM | > 10000 nM | 20 |
| COc1ncccc1-c1cnc2c(c1)[C@@]1(F)CCN(C[C@@H]1C)C(=O)CCCOCCc1nc(c3oc4ccccc4c3n1)N1C[C@H](C[C@H]1C(=O)O)O2 [Example 20.01, (1R,9S,11S,34S)-1-fluoro-4-(2-methoxypyridin-3-yl)-34-methyl-31-oxo-8,15,27-trioxa-6,12,23,32,37-pentaazaheptacyclo[30.2.2.1^9,12.1^13,24.0^2,7.0^14,22.0^16,21]octatriaconta-2,4,6,13(37),14(22),16(21),17,19,23-nonaene-11-carboxylic acid] | 18 nM | 19 nM | 45 nM | 8100 nM | 419 |
| C[C@H]1CN2CC[C@]1(F)c1cccnc1O[C@H]1C[C@@H](C(=O)O)N(C1)c1nc(nc3c1oc1ccccc13)CCCOCCC2=O [Example 24, (1R,9S,11S,34S)-1-fluoro-34-methyl-31-oxo-8,15,28-trioxa-6,12,23,32,37-pentaazaheptacyclo-[30.2.2.1^9,12.1^13,24.0^2,7.0^14,22.0^16,21]octatriaconta-2,4,6,13(37),14(22),16(21),17,19,23-nonaene-11-carboxylic acid] | 28 nM | 640 nM | 801 nM | > 10000 nM | 16 |

Now from value to compound, other results behind:

| IC50 (Human cGAS enzyme) | IC50 [1] | IC50 [3] | SMILES | IC50 [2] | Ratio THP(cGAMP) IC50/ THP(vir) IC50 [2] |
| --- | --- | --- | --- | --- | --- |
| 2.8 nM | 11 nM | 9 nM | C[C@H]1CN2CC[C@]1(F)c1cc(Cl)cnc1O[C@H]1C[C@@H](C(=O)O)N(C1)c1nc(nc3c1oc1ccccc13)COC(=O)CCC2=O [Example 11, (1R,9S,11S,33S)-4-Chloro-1-fluoro-33-methyl-27,30-dioxo-8,15,26-trioxa-6,12,23,31,36-pentaazaheptacyclo[29.2.2.1^9,12.1^13,24.0^2,7.0^14,22.0^16,21]heptatriaconta-2,4,6,13(36),14(22),16(21),17,19,23-nonaene-11-carboxylic acid] | > 10000 nM | 902 |
| 14 nM | 57 nM | 22 nM | CC#Cc1cnc2c(c1)[C@@]1(F)CCN(C[C@@H]1C)C(=O)COCCCCc1nc(c3oc4ccccc4c3n1)N1C[C@H](C[C@H]1C(=O)O)O2 [Example 29, (1R,9S,11S,34S)-1-fluoro-34-methyl-31-oxo-4-(prop-1-yn-1-yl)-8,15,29-trioxa-6,12,23,32,37-penta-azaheptacyclo[30.2.2.1^9,12.1^13,24.0^2,7.0^14,22.0^16,21]octatriaconta-2(7),3,5,13,16(21),17,19,22,24(37)-nonaene-11-carboxylic acid] | 2200 nM | 39 |
| 7 nM | 47 nM | 15 nM | C[C@H]1CN2CC[C@]1(F)c1cc(Br)cnc1O[C@H]1C[C@@H](C(=O)O)N(C1)c1nc(nc3c1oc1ccccc13)CCCCOCC2=O [Example 28] | 1900 nM | 39 |
| 12 nM | 59 nM | 114 nM | C[C@H]1CN2CC[C@]1(F)c1cc(Cl)cnc1O[C@H]1C[C@@H](C(=O)O)N(C1)c1nc(nc3c1oc1ccccc13)C(F)(F)CCCCCC2=O [Example 05, (1R,9S,11S,34S)-4-chloro-1,25,25-trifluoro-34-methyl-31-oxo-8,15-dioxa-6,12,23,32,37-pentaazaheptacyclo[30.2.2.1^9,12.1^13,24.0^2,7.0^14,22.0^16,21]octatriaconta-2,4,6,13,16,18,20,22,24(37)-nonaene-11-carboxylicacid] | 9400 nM | 158 |
| 18 nM | 150 nM | 222 nM | C[C@H]1CN2CC[C@]1(F)c1cc(Cl)cnc1O[C@H]1C[C@@H](C(=O)O)N(C1)c1nc(nc3c1oc1ccccc13)C(F)(F)CCCCC(F)(F)C2=O [Example 06, (1R,9S,11S,34S)-4-chloro-1,25,25,30,30-pentafluoro-34-methyl-31-oxo-8,15-dioxa-6,12,23,32,37-pentaazaheptacyclo[30.2.2.1^9,12.1^13,24.0^2,7.0^14,22.0^16,21]-octatriaconta-2,4,6,13(37),14(22),16(21),17,19,23-nonaene-11-carboxylic acid] | > 10000 nM | 65 |
| 5 nM | 83 nM | 33 nM | C[C@H]1CN2CC[C@]1(F)c1cc(Cl)cnc1O[C@H]1C[C@@H](C(=O)O)N(C1)c1nc(nc3c1oc1ccccc13)CCCCOCC2=O [Example 27] | 1700 nM | 20 |
| 5 nM | 3 nM | 16 nM | C[C@H]1CN2CC[C@]1(F)c1cc(Cl)cnc1O[C@H]1C[C@@H](C(=O)O)N(C1)c1nc(nc3c1oc1cc(Cl)ccc13)C(F)(F)CCCOCC2=O [Example 33] | 6400 nM | 2085 |
| 8 nM | 36 nM | 41 nM | C[C@H]1CN2CC[C@]1(F)c1cc(Cl)cnc1O[C@H]1C[C@@H](C(=O)O)N(C1)c1nc(nc3c1oc1ccccc13)CCOCCOC2=O [Example 34, (1R,9S,11S,34S)-4-chloro-1-fluoro-34-methyl-31-oxo-8,15,27,30-tetraoxa-6,12,23,32,37-pentaaza-heptacyclo[30.2.2.1^9,12.1^13,24.0^2,7.0^14,22.0^16,21]octatriaconta-2,4,6,13(37),14(22),16(21),17,19,23-nonaene-11-carboxylic acid] | 16000 nM | 450 |
| 7 nM | 8 nM | 10 nM | C[C@H]1CN2CC[C@]1(F)c1cc(-c3cnn(C)c3)cnc1O[C@H]1C[C@@H](C(=O)O)N(C1)c1nc(nc3c1oc1ccccc13)CCOCCCC2=O [Example 20.02] | 7900 nM | 946 |
